According to patent US5385921A, “Pharmaceutical formulations” (Aktiebolaget Astra, priority 1990, dated 1995):

How the values were obtained:
[1] = test system: CA1/CA2 hippocampal neurones; test: Neuroprotection studies: damage to CA1/CA2 hippocampal neurones in gerbils after carotid artery occlusion; format: in vivo, gerbil
Experimental: (§1) All drugs were dissolved in isotonic saline. Weights refer to the free base.
Ischaemia was induced in gerbils, by occlusion of the carotid arteries following the accepted general procedure as described in, for example, EP 230 370 and R. Gill, A. C. Foster and G. N. Woodruff, J. Neuroscience, 1987, 7, 3343-3349.
Ischaemia was induced in the animals by 5 minute occlusion of both carotid arteries. Body temperature was maintained at 37° C. throughout. Restoration of blood flow after occlusion was checked visually and the animals were allowed to survive for 4 days. The extent of neuronal degeneration in the hippocampus was then assessed. The test compounds were adminstered (i.p.) as a single dose 60 minutes following occlusion. No administration was made prior to the occlusion.

[2] = test system: locomotor activity; test: Sedation studies: suppression of locomotor activity in mice; format: in vivo, male TO mice; settings: Mus musculus, recording starts 20 min after administration, 30 min period, weights refer to the free base, read-out: Sedation ED50 (dose required to reduce locomotor activity by 50%)
Experimental: (§2) Animals used were male Wistar rats (140-170 g) and male TO mice (18-30 g).
as §1
The test drug was administered to mice and starting 20 min later locomotor activity was recorded for a 30 min period. Activity was monitored using an infra-red light beam interruption system in cages measuring 40 cm×40 cm. Data are expressed as the dose required to reduce locomotor activity by 50% (ED50).

[3] = test system: Pentylenetetrazol (PTZ) seizures; test: Pentylenetetrazol (PTZ) seizures: seizure threshold in rats; format: in vivo, male Wistar rats; settings: Rattus norvegicus, 0.25 h, drug 15 min before PTZ infusion into tail vein, weights refer to the free base, read-out: PTZ seizures TI50 (dose required to increase seizure threshold by 50%)
Experimental: as §2, §1
Seizure threshold was assessed in rats by measurement of the dose of PTZ required to elicit a seizure when infused through a tail vein. PTZ (10 mg/ml) was infused into the tail vein at a rate of […] and the time to the first clonic convulsion measured. Seizure threshold was calculated as described by Green & Murray, J. Pharm. Pharmacol. 1989, 41: 879-880. Drugs were administered 15 min before the PTZ. Data are expressed as the dose required to increase seizure threshold by 50% (TI50).

[4] = test system: N-methyl-D-aspartate (NMDA) seizures; test: N-methyl-D-aspartate (NMDA) seizures: tonic convulsions in mice; format: in vivo, male TO mice; settings: Mus musculus, drug 15 min before NMDA 300 mg/kg i.p., weights refer to the free base, read-out: NMDA seizures ED50 (dose required to decrease the incidence of tonic convulsions by 50%)
Experimental: as §2, §1
Drugs were adminstered 15 min before the NMDA, and data are expressed as the dose required to decrease the incidence of tonic convulsions by 50% (ED50).

Structure (SMILES)	% Damage to CA1/CA2 Hippocampal Neurones ([1]; 100 mg/kg i.p. single dose 60 minutes after induction of ischaemia, n=8, assessed after 4 days, untreated (None) 92 ±7)	reduction of damage to the CA1/CA2 hippocampal neurones (in words) ([1]; i.p., single dose 60 minutes following occlusion)	ED50 [2]	ED50 [3]	ED50 [4]
Cc1ncsc1C(O)CCl.Cl (centres unmarked) [5-(2-chloro-1-hydroxyethyl)-4-methylthiazole hydrochloride salt]	64 ±8%	effective in reducing the damage to the CA1/CA2 hippocampal neurones	–	–	–
Cc1ncsc1C(O)CCl (centres unmarked) [5-(2-Chloro-1-hydroxyethyl)-4-methylthiazole ethandisulphonate]	–	–	52 mg/kg	34 mg/kg	40 mg/kg
